Measurements from article PMC5068545, “Glycan Specificity of P[19] Rotavirus and Comparison with Those of Related P Genotypes” (Journal of Virology, 2016).

Tests used:
P[8] VP8* = molecular target: T1, P[8] VP8* (Human rotavirus A, UniProt A0A509GLV6); test: ELISA-based oligosaccharide binding; conditions: GST-VP8*; labelled compound (biotin conjugate, multivalent); weak signal
T1 construct: VP8* domain of spike polyprotein VP4; GST fusion from E. coli BL21
Excerpt: ELISA-based oligosaccharide binding on P[8] […] RVs

P[4] VP8* = molecular target: T2, P[4] VP8* (Human rotavirus (SEROTYPE 2 / STRAIN DS1), UniProt P11196); test: ELISA-based oligosaccharide binding; conditions: GST-VP8*; labelled compound (biotin conjugate, multivalent); weak signal
T2 construct: VP8* domain of spike polyprotein VP4; GST fusion from E. coli BL21; DS1 is only the modelling template
Excerpt: ELISA-based oligosaccharide binding on P[4] […] RVs

P[19] VP8* [1] = molecular target: T3, P[19] VP8* (Human rotavirus A, UniProt A7YCM0); test: ELISA-based oligosaccharide binding; conditions: GST-VP8*; labelled compound (biotin conjugate, multivalent); weak signal
T3 construct: gene VP4; VP8* domain (aa 46-231) of spike polyprotein VP4; E. coli BL21 GST fusion; GST cut with thrombin for NMR, kept in ELISA and glycan array
Excerpt: ELISA-based oligosaccharide binding on P[19] […] RVs recognized LNFPI and LNT | Low binding signals were detected for all four P[II] RVs

P[19] VP8* [2] = molecular target: T3, P[19] VP8*; test: 1H-15N HSQC NMR titration; format: binding; conditions: 20°C, pH 8.0, 10 mM Tris-HCl, 100 mM NaCl; 0.25 mM 15N-labelled VP8*, GST removed
Excerpt: 1H-15N HSQC NMR titration on P[19]

Row | SMILES | ELISA-based oligosaccharide binding (P[8] VP8*) | ELISA-based oligosaccharide binding (P[4] VP8*) | ELISA-based oligosaccharide binding (P[19] VP8* [1]) | Kd (P[19] VP8* [2]) [µM]
1 | CC(=O)N[C@H]1C(O)O[C@H](CO)[C@@H](O)[C@@H]1O[C@@H]1O[C@H](CO)[C@H](O)[C@H](O)[C@H]1O (stereo partly shown) [lacto-N-biose, Galβ1-3GlcNAc] | Low binding signals were detected for all four P[II] RVs | Low binding signals were detected for all four P[II] RVs | Low binding signals were detected for all four P[II] RVs | 
2 | CC(=O)N[C@H]1[C@H](O[C@H]2[C@@H](O)[C@@H](CO)O[C@@H](O[C@H]3[C@H](O)[C@@H](O)C(O)O[C@@H]3CO)[C@@H]2O)O[C@H](CO)[C@@H](O)[C@@H]1O[C@@H]1O[C@H](CO)[C@H](O)[C@H](O)[C@H]1O[C@@H]1O[C@@H](C)[C@@H](O)[C@@H](O)[C@@H]1O (stereo partly shown) [LNFPI, Fucα1-2Galβ1-3GlcNAcβ1-3Galβ1-4Glc] |  |  |  | 2600
